The pIC50 is the negative decadic logarithm of the IC50, by convention in mol/L. Higher therefore signals a small IC50. By pEC50 is commonly meant the negative decadic logarithm of the EC50, by convention in mol/L.

In US20110081315A1, “NOVEL MACROCYCLIC INHIBITORS OF HEPATITIS C VIRUS REPLICATION” (INTERMUNE, INC., priority 2009, published 2011) one finds IC50 and EC50 data, which are given here for 25 compounds.

pEC50, pIC50: −log10 of the molar value.

The target of assay [1] is NS3/NS4 complexes (Hepatitis C virus genotype 1a, UniProt P27958). In words: NS3/NS4 inhibition assay (IC50). The assay is classed as biochemical. Particulars: NS3/NS4 activity; 23° C., 25 μM NS4A peptide. In a few lines: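 NS3/NS4 protease complexes were formed and compound inhibitory concentrations (IC50) measured at ambient temperature (23° C.) in 50 mM Tris-HCl, pH 7.5, with 15% glycerol, 0.6 mM LDAO, 25 μM NS4A peptide and 10 mM DTT. Replicon EC50 values come from a standard HCV replicon cell assay.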
Chain of NS3/NS4 complexes (P27958 1027-1657, one chain of several): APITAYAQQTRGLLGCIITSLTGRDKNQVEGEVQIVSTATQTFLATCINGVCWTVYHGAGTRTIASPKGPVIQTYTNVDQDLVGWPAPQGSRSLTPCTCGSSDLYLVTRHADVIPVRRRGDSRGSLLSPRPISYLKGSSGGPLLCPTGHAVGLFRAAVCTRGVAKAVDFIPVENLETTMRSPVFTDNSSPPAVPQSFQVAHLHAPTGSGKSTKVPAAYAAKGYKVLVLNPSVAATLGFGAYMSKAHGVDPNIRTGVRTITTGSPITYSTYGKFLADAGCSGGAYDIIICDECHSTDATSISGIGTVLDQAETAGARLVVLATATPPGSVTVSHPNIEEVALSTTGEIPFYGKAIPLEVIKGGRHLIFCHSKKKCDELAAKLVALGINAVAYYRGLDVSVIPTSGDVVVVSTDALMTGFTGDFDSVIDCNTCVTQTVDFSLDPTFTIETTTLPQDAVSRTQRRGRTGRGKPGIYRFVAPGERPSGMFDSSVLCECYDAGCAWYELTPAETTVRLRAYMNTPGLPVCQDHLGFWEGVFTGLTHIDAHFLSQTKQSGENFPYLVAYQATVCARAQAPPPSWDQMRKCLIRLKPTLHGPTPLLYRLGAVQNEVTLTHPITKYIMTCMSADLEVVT

Assay [2] concerns hepatitis C replicon. Kind of assay: hepatitis C replicon EC50 assay. It counts as cell-based. Particulars: Hepatitis C virus; hepatitis C replicon; read-out: EC50. In a few lines: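 First, NS3 and NS4 are complexed; test compounds are then titrated against the complex at room temperature (23° C.) in Tris-HCl buffer, pH 7.5, supplemented with glycerol (15%), LDAO (0.6 mM), DTT (10 mM) and NS4A peptide (25 μM) to give IC50. Separately, replicon cells give EC50.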
(In antiviral work, replicon cells carry a viral genome segment that copies itself.)

For the compound `CC(C)c1csc(NC(=O)c2cccc3c2nc(O[C@@H]2C[C@H]4C(=O)N[C@]5(C(=O)NS(=O)(=O)N(C)C)C[C@H]5/C=C\CCCCC[C@H](NC(=O)OC(C)(C)C)C(=O)N4C2)n3C(C)C)n1` [Compound 1221], in assay [1], the pIC50 was greater than 8.00. Moreover, the pEC50 in assay [2] was greater than 8.00.

`CC(C)n1c(O[C@@H]2C[C@H]3C(=O)N[C@]4(C(=O)NS(=O)(=O)C5(C)CC5)C[C@H]4/C=C\CCCCC[C@H](NC(=O)OC(C)(C)C)C(=O)N3C2)nc2c(-c3nc(CC4CCCCC4)cs3)cccc21` [Compound 1773] gave a pIC50 in assay [1] greater than 8.00. The pEC50 in assay [2] was greater than 8.00.

In turn, `CC1(S(=O)(=O)NC(=O)[C@@]23C[C@H]2/C=C\CCCCC[C@H](Nc2ccccc2)C(=O)N2C[C@H](n4nnc5ccccc54)C[C@H]2C(=O)N3)CC1` [Compound 1502] had a pIC50 in assay [1] greater than 8.00. Moreover, in assay [2], the pEC50 is less than 7.00.

`CC(C)n1c(O[C@@H]2C[C@H]3C(=O)N[C@]4(C(=O)NS(=O)(=O)C5(C)CC5)C[C@H]4/C=C\CCCCC[C@H](NC(=O)OC(C)(C)C)C(=O)N3C2)nc2c(-c3nc(-c4ccccc4Cl)cs3)cccc21` [Compound 1714] showed a pIC50 in assay [1] greater than 8.00. In addition, the pEC50 in assay [2] was 7.00 to 8.00.

Consider `CC(C)n1c(O[C@@H]2C[C@H]3C(=O)N[C@]4(C(=O)NS(=O)(=O)C5(C)CC5)C[C@H]4/C=C\CCCCC[C@H](Nc4ccccc4)C(=O)N3C2)nc2c(C(=O)NCc3ccccc3)cccc21` [Compound 274], for which, in assay [1], the pIC50 was greater than 8.00. Besides, the pEC50 in assay [2] is 7.00 to 8.00.

For the compound `CC(C)n1c(O[C@@H]2C[C@H]3C(=O)N[C@]4(C(=O)NS(=O)(=O)N(C)C)C[C@H]4/C=C\CCCCC[C@H](NC(=O)OC(C)(C)C)C(=O)N3C2)nc2c(-c3ncco3)cccc21` [Compound 227], the pIC50 in assay [1] is greater than 8.00. Moreover, the pEC50 in assay [2] was greater than 8.00.

`CC(C)n1c(O[C@@H]2C[C@H]3C(=O)N[C@]4(C(=O)NS(=O)(=O)N(C)C)C[C@H]4/C=C\CCCCC[C@H](NC(=O)OC(C)(C)C)C(=O)N3C2)nc2c(C(F)(F)F)cccc21` [Compound 291] showed a pIC50 in assay [1] greater than 8.00. Also, the pEC50 in assay [2] was greater than 8.00.

`CC(C)n1c(O[C@@H]2C[C@H]3C(=O)N[C@]4(C(=O)NS(=O)(=O)C5(C)CC5)C[C@H]4/C=C\CCCCC[C@H](Nc4ccccc4)C(=O)N3C2)nc2c(-c3ccc(C#N)cc3)cccc21` [Compound 240]: the pIC50 in assay [1] is greater than 8.00. Also, in assay [2], the pEC50 is 7.00 to 8.00.

Consider `Cc1ccc(-c2csc(-c3cccc4c3nc(O[C@@H]3C[C@H]5C(=O)N[C@]6(C(=O)NS(=O)(=O)N(C)C)C[C@H]6/C=C\CCCCC[C@H](NC(=O)OC(C)(C)C)C(=O)N5C3)n4C(C)C)n2)cc1` [Compound 1746], for which the pIC50 in assay [1] is greater than 8.00. The pEC50 in assay [2] is 7.00 to 8.00.

The compound `Cc1ccc(Cc2csc(-c3cccc4c3nc(O[C@@H]3C[C@H]5C(=O)N[C@]6(C(=O)NS(=O)(=O)C7(C)CC7)C[C@H]6/C=C\CCCCC[C@H](NC(=O)OC(C)(C)C)C(=O)N5C3)n4C(C)C)n2)cc1` [Compound 1719] showed a pIC50 in assay [1] greater than 8.00. For the same compound, in assay [2], the pEC50 is greater than 8.00.

In assay [1], `CC(C)n1c(O[C@@H]2C[C@H]3C(=O)N[C@]4(C(=O)NS(=O)(=O)N(C)C)C[C@H]4/C=C\CCCCC[C@H](NC(=O)OC(C)(C)C)C(=O)N3C2)nc2c(-c3csc(-c4ccccc4)n3)cccc21` [Compound 1740] gave a pIC50 greater than 8.00. Further, in assay [2], the pEC50 is 7.00 to 8.00.

In assay [1], `CC(C)n1c(O[C@@H]2C[C@H]3C(=O)N[C@]4(C(=O)NS(=O)(=O)C5(C)CC5)C[C@H]4/C=C\CCCCC[C@H](NC(=O)OC4CCCC4)C(=O)N3C2)nc2c(-c3nc(-c4ccccc4)cs3)cccc21` [Compound 1730] gave a pIC50 greater than 8.00. In addition, in assay [2], the pEC50 is greater than 8.00.

The compound `Cc1cnc(-c2cccc3c2nc(O[C@@H]2C[C@H]4C(=O)N[C@]5(C(=O)NS(=O)(=O)C6CC6)C[C@H]5/C=C\CCCCC[C@H](NC(=O)OC(C)(C)C)C(=O)N4C2)n3C(C)C)s1` [Compound 216] gave a pIC50 in assay [1] greater than 8.00. Moreover, the pEC50 in assay [2] was greater than 8.00.

`COc1cnc(O[C@@H]2C[C@H]3C(=O)N[C@]4(C(=O)NS(=O)(=O)C5(C)CC5)C[C@H]4/C=C\CCCCC[C@H](Nc4cccc(F)c4)C(=O)N3C2)c2cc(Cl)ccc12` [Compound 1101] showed a pIC50 in assay [1] greater than 8.00. Moreover, in assay [2], the pEC50 is greater than 8.00.

In the case of `CC(C)n1c(O[C@@H]2C[C@H]3C(=O)N[C@]4(C(=O)O)C[C@H]4/C=C\CCCCC[C@H](Nc4cccc(F)c4)C(=O)N3C2)nc2c(-c3nc(C4CCCC4)cs3)cccc21` [Compound 1763], the pIC50 in assay [1] is 7.00 to 8.00. Moreover, the pEC50 in assay [2] was less than 7.00.

Compound `CCOC(=O)Nc1cccc2c1nc(O[C@@H]1C[C@H]3C(=O)N[C@]4(C(=O)NS(=O)(=O)C5(C)CC5)C[C@H]4/C=C\CCCCC[C@H](Nc4ccccc4)C(=O)N3C1)n2C(C)C` [Compound 1409] had a pIC50 in assay [1] greater than 8.00. Also, the pEC50 in assay [2] is greater than 8.00.

`Cc1cc(-c2nc(C(C)C)cs2)c2nc(O[C@@H]3C[C@H]4C(=O)N[C@]5(C(=O)NS(=O)(=O)N(C)C)C[C@H]5/C=C\CCCCC[C@H](NC(=O)OC(C)(C)C)C(=O)N4C3)n(C(C)C)c2c1` [Compound 1436] showed a pIC50 in assay [1] greater than 8.00. In addition, the negative-log EC50 (pEC50) in assay [2] is 7.00 to 8.00.

`Cc1cc(F)cc(-c2cccc3c2nc(O[C@@H]2C[C@H]4C(=O)N[C@]5(C(=O)NS(=O)(=O)C6(C)CC6)C[C@H]5/C=C\CCCCC[C@H](Nc5ccccc5)C(=O)N4C2)n3C(C)C)c1` [Compound 245] showed a pIC50 in assay [1] greater than 8.00. Besides, the pEC50 in assay [2] was less than 7.00.

Compound `Cc1sc(-c2c(F)ccc3c2nc(O[C@@H]2C[C@H]4C(=O)N[C@]5(C(=O)NS(=O)(=O)N(C)C)C[C@H]5/C=C\CCCCC[C@H](NC(=O)OC(C)(C)C)C(=O)N4C2)n3C(C)C)nc1C(C)C` [Compound 1219] had a pIC50 in assay [1] greater than 8.00. Further, in assay [2], the pEC50 was greater than 8.00.

In assay [1], `CCc1cccc2c1nc(O[C@@H]1C[C@H]3C(=O)N[C@]4(C(=O)NS(=O)(=O)C5(C)CC5)C[C@H]4/C=C\CCCCC[C@H](Nc4ccccc4)C(=O)N3C1)n2C(C)C` [Compound 265] had a pIC50 greater than 8.00. Also, the negative-log EC50 (pEC50) in assay [2] was 7.00 to 8.00.

Regarding `Cc1oc(-c2cccc3c2nc(O[C@@H]2C[C@H]4C(=O)N[C@]5(C(=O)NS(=O)(=O)N(C)C)C[C@H]5/C=C\CCCCC[C@H](NC(=O)OC(C)(C)C)C(=O)N4C2)n3C(C)C)nc1Cc1ccccc1` [Compound 1214], the pIC50 in assay [1] was greater than 8.00. In assay [2], the pEC50 was greater than 8.00.

Regarding `CN(C)S(=O)(=O)NC(=O)[C@@]12C[C@H]1/C=C\CCCCC[C@H](NC(=O)OC(C)(C)C)C(=O)N1C[C@H](Oc3nc4ccccc4n3-c3ccccc3)C[C@H]1C(=O)N2` [Compound 207], the pIC50 in assay [1] was greater than 8.00. Further, the pEC50 in assay [2] was greater than 8.00.

For the compound `CC(C)n1c(O[C@@H]2C[C@H]3C(=O)N[C@]4(C(=O)NS(=O)(=O)N(C)C)C[C@H]4/C=C\CCCCC[C@H](NC(=O)OC(C)(C)C)C(=O)N3C2)nc2ncccc21` [Compound 1780], in assay [1], the pIC50 was greater than 8.00. For the same compound, the pEC50 in assay [2] is 7.00 to 8.00.

In assay [1], `Cc1oc(-c2c(F)ccc3c2nc(O[C@@H]2C[C@H]4C(=O)N[C@]5(C(=O)NS(=O)(=O)N(C)C)C[C@H]5/C=C\CCCCC[C@H](NC(=O)OC(C)(C)C)C(=O)N4C2)n3C(C)C)nc1C(C)C` [Compound 1220] showed a pIC50 greater than 8.00. Besides, the pEC50 in assay [2] is greater than 8.00.

For the compound `COc1ccc2c(O[C@@H]3C[C@H]4C(=O)N[C@]5(C(=O)NS(=O)(=O)C6(C)CC6)C[C@H]5/C=C\CCCCC[C@H](Nc5cccc(F)c5)C(=O)N4C3)nc(-c3nc(C(C)C)cs3)cc2c1C` [Compound 1005], the pIC50 in assay [1] is greater than 8.00. Also, in assay [2], the pEC50 was less than 7.00.
